Laboratory results as given in ChEMBL document CHEMBL1154899, “Synthesis and biological evaluation of caffeic acid 3,4-dihydroxyphenethyl ester” (J Nat Prod, 2010).

Assays:
Assay type in all cases: functional
LOX IMVI = assay: Antiproliferative activity against human LOXIMVI cells assessed as cell growth at 500 uM by SRB assay; conditions: read-out: Activity
MCF7 [1] = assay: Antiproliferative activity against human MCF7 cells assessed as cell growth at 5 mM by SRB assay; conditions: read-out: Activity
NCI-H322M = assay: Antiproliferative activity against human NCI-H322M cells assessed as cell growth at 500 uM by SRB assay; conditions: read-out: Activity
BT-549 = assay: Antiproliferative activity against human BT549 cells assessed as cell growth at 500 uM by SRB assay; conditions: read-out: Activity
SR = assay: Antiproliferative activity against human SR cells assessed as cell growth at 50 uM by SRB assay; conditions: read-out: Activity
EKVX = assay: Antiproliferative activity against human EKVX cells assessed as cell growth at 5 uM by SRB assay; conditions: read-out: Activity
786-0 = assay: Antiproliferative activity against human 786-0 cells assessed as cell growth at 5 uM by SRB assay; conditions: read-out: Activity
HL-60(TB) = assay: Antiproliferative activity against human HL-60(TB) cells assessed as cell growth at 50 uM by SRB assay; conditions: read-out: Activity
U-251 = assay: Antiproliferative activity against human U251 cells assessed as cell growth at 500 uM by SRB assay; conditions: read-out: Activity
CAKI-1 = assay: Antiproliferative activity against human Caki1 cells assessed as cell growth at 0.5 uM by SRB assay; conditions: read-out: Activity
SF-268 = assay: Antiproliferative activity against human SF268 cells assessed as cell growth at 50 uM by SRB assay; conditions: read-out: Activity
SF-295 = assay: Antiproliferative activity against human SF295 cells assessed as cell growth at 50 uM by SRB assay; conditions: read-out: Activity
NCI-H460 = assay: Antiproliferative activity against human NCI-H460 cells assessed as cell growth at 5 mM by SRB assay; conditions: read-out: Activity
NCI-H522 = assay: Antiproliferative activity against human NCI-H522 cells assessed as cell growth at 500 uM by SRB assay; conditions: read-out: Activity
MCF7 [2] = assay: Antiproliferative activity against human MCF7 cells by SRB assay
[3] = Antiproliferative activity against human […] cells assessed as cell growth at 5 uM by SRB assay; conditions: read-out: Activity
[4] = Antiproliferative activity against human […] cells assessed as cell growth at 500 uM by SRB assay; conditions: read-out: Activity
SK-MEL-5 = assay: Antiproliferative activity against human SK-MEL-5 cells assessed as cell growth at 50 uM by SRB assay; conditions: read-out: Activity
HCT-15 = assay: Antiproliferative activity against human HCT15 cells assessed as cell growth at 50 uM by SRB assay; conditions: read-out: Activity

O=C(/C=C/c1ccc(O)c(O)c1)OCCc1ccc(O)c(O)c1
growth at 500 µM (LOX IMVI): 57%
growth at 5000 µM (MCF7 [1]): 5%
growth at 500 µM (NCI-H322M): 86%
growth at 500 µM (BT-549): 60%
growth at 50 µM (SR): 77%
growth at 5 µM (EKVX): 84%
growth at 5 µM (786-0): 98%
growth at 50 µM (HL-60(TB)): 82%
growth at 500 µM (U-251): 65%
growth at 0.5 µM (CAKI-1): 82%
growth at 50 µM (SF-268): 85%
growth at 50 µM (SF-295): 87%
growth at 5000 µM (NCI-H460): 1%
growth at 500 µM (NCI-H522): 10%
GI50 (MCF7 [2]; read-out: GI50): 3.86 µM
CC50 (MCF7 [2]; read-out: LC50 (the source's name)): > 50 µM
TGI (MCF7 [2]; read-out: TGI): > 50 µM
GI50 (MCF7 [2]; read-out: pGI50 (converted)): 3.89 µM
CC50 (MCF7 [2]; read-out: pLC50 (the source's name) (converted)): > 50.1 µM
TGI (MCF7 [2]; read-out: pTGI): > 50.1 µM
growth at 5 µM [3]: 70%
growth at 500 µM [4]: 11%
growth at 50 µM (SK-MEL-5): 102%
growth at 50 µM (HCT-15): 78%
